Test results: publication PMC10445290, “Enantiomeric Fractions Reveal Differences in the Atropselective Disposition of 2,2′,3,5′,6-Pentachlorobiphenyl (PCB 95) in Wildtype, Cyp2abfgs-Null, and CYP2A6-Humanized Mice” (Chemical Research in Toxicology, 2023)
Read-outs that look alike come from different tables or passages of the source.

Tests used:
[1] = Levels of PCB 95 and its hydroxylated metabolites in adipose, blood, brain and liver 24 h after a single oral dose (GC-MS/MS); format: in vivo, mice; settings: for Levels in blood / Levels in adipose / Levels in liver / concentration at 24 h: 1 mg/kg; for concentration at 24 h: po
Procedure: Adult male and female wild-type (WT) C57BL/6 mice, KO, and KI mice (4 months old) were exposed to racemic PCB 95. Mice were randomly assigned to exposure groups and received a single oral dose of PCB 95 (1.0 mg/kg) in stripped corn oil (10 mL/kg; lot# A0395699; cat# 801-03-7; Fisher Scientific) via gavage (5–7 mice per group). Control animals received corn oil alone (1–3 mice per group) to assess the potential background contamination with PCB 95. Animals were euthanized 24 h after PCB 95 exposure. Blood was collected from the heart and placed in pre-weighed glass vials with 80 μL of ethylenediaminetetraacetic acid solution (EDTA, 7.5%, w/w). The amount of blood in each vial was determined by weight prior to sample extraction. Adipose, brain, and liver tissues were excised from each animal and individually wrapped in aluminum foil. Samples were stored at −80 °C in separate plastic bags and shipped on dry ice to the University of Iowa for analysis.
PCB 95 and its hydroxylated metabolites were extracted from adipose (0.06 ± 0.01 g), brain (0.19 ± 0.03 g) and liver tissues (0.49 ± 0.07 g) by pressurized liquid extraction (PLE) with a Dionex ASE200 system (Dionex, Sunnyvale, CA, USA).[45] Tissues were homogenized with 2 g of pre-cleaned diatomaceous earth (Thermo Fisher Scientific, Pittsburgh, PA, USA) and placed in extraction cells loaded with 10 g of pre-extracted Florisil (60–100 mesh, Fisher Scientific, Pittsburgh, PA, USA). Tissue samples were then spiked with recovery standards [50 ng of PCB 117 in 50 μL of isooctane and 50 ng of 4′-159 (2′,3,3′,5,5′,6′-hexachlorobiphenyl-4-ol) in 50 μL of methanol]. For ongoing precision recovery (OPR) samples; recovery standard, internal standard, PCB 95, and its metabolites (50 ng each) were spiked to the method blank (DE only) and tissues from control animals. Cells were extracted with hexane–dichloromethane–methanol (48:43:9, v/v/v) at 100 °C and 1500 psi (10 MPa), with preheat equilibration for 6 min, 60% of cell flush volume, and 1 static cycle of 5 min. The extracts were concentrated to approximately 1 mL with a TurboVap II (Biotage, LLC, NC, USA) and transferred to new glass tubes with 1 mL of hexane. The solvent was evaporated to near dryness under a gentle stream of nitrogen, and extracts were redissolved in 1 mL of hexane.
PCB 95 and its hydroxylated metabolites were extracted from whole blood (0.45 ± 0.13 g) using a published liquid–liquid extraction procedure.[29] Briefly, blood samples were thawed, and 3 mL of aqueous 1% KCl solution was added to each sample. Recovery standards (50 ng of PCB 117 in 50 μL of isooctane and 50 ng of 4′-159 in 50 μL of methanol) were spiked to all samples, including OPR samples, before extraction. Subsequently, 1 mL of 6 M HCl, 5 mL of 2-propanol, and 5 mL of 1:1 hexane–MTBE mixture (v/v) were added to the blood samples. The samples were inverted for 5 min and centrifuged at 1690g for 5 min to facilitate the phase separation. Next, the organic phases were transferred to new glass tubes, and the aqueous phases were re-extracted with 3 mL of hexane. Next, three mL of aqueous 1% KCl were added to the combined organic extracts, and samples were inverted and centrifuged as described above. The organic phase was transferred to a new tube, and the aqueous phase was re-extracted with 3 mL of hexane. The combined organic extracts were evaporated to near dryness using a Savant SpeedVac SPD210 (Thermo Scientific, Waltham, MA, US), and each sample was reconstituted with 0.5 mL of hexane.
Five drops of methanol and 0.5 mL of diazomethane (CH2N2; about 0.1 mmol) in diethyl ether were added to the tissue or blood extracts to derivatize the OH-PCBs.[45] Diazomethane rapidly converts the phenolic hydroxyl groups of OH-PCBs to methoxy groups (i.e., −OH → −OCH3). All samples were stored at 4 °C for approximately 16 h. Excess diazomethane evaporated under a gentle stream of nitrogen in a fume hood, followed by adding 0.5 mL of hexane. […]

[2] = set-up: method as in PMID 26463278; settings: male Wistar rats, sub-acute oral exposure; cited from earlier work
[3] = MKI, male CYP2A6-humanized mice, single oral PCB 95 1.0 mg/kg, mean ± SD
[4] = MWT, male wildtype mice, single oral PCB 95 1.0 mg/kg, mean ± SD

SMILES: Clc1ccc(Cl)c(-c2c(Cl)ccc(Cl)c2Cl)c1 [PCB 95, 2,2′,3,5′,6-pentachlorobiphenyl]
- Levels in blood ([1]; FKO, female Cyp2abfgs-null mice, single oral PCB 95 1.0 mg/kg, mean ± SD): 9 ng/g tissue
- Levels in adipose ([1]; FWT, female wildtype mice, single oral PCB 95 1.0 mg/kg, mean ± SD): 1300 ng/g tissue
- Levels in blood [1, 3]: 16 ng/g tissue
- Levels in liver [1, 3]: 183 ng/g tissue
- Levels in adipose ([1]; MKO, male Cyp2abfgs-null mice, single oral PCB 95 1.0 mg/kg, mean ± SD): 690 ng/g tissue
- Levels in adipose [1, 4]: 1300 ng/g tissue
- Levels in liver [1, 4]: 96 ng/g tissue
- Kp at 24 h ([1]; both sexes, C57BL/6 (wild-type), KO and KI, mouse, adipose / whole blood, all six exposure groups, single oral 1.0 mg/kg, read-out: Mean adipose levels, times higher than the blood levels): 42 to 68
- concentration at 24 h ([1]; both sexes, C57BL/6 (wild-type), KO and KI, mouse, brain, range across all three genotypes and both sexes, single oral 1.0 mg/kg, read-out: PCB 95 levels in the whole brain): 13 to 21 ng/g
- concentration at 24 h ([1]; female, C57BL/6 (wild-type), mouse, adipose, FWT, female wildtype mice, single oral PCB 95 1.0 mg/kg, mean ± SD, read-out: Levels in adipose): 1310 ± 405 ng/g
- concentration at 24 h ([1]; female, C57BL/6 (wild-type), mouse, brain, FWT, female wildtype mice, single oral PCB 95 1.0 mg/kg, mean ± SD, read-out: Levels in brain): 19.2 ± 7.3 ng/g
- concentration at 24 h ([1]; female, C57BL/6 (wild-type), mouse, liver, FWT, female wildtype mice, single oral PCB 95 1.0 mg/kg, mean ± SD, read-out: Levels in liver): 120 ± 42.1 ng/g
- concentration at 24 h ([1]; female, C57BL/6 (wild-type), mouse, whole blood, FWT, female wildtype mice, single oral PCB 95 1.0 mg/kg, mean ± SD, read-out: Levels in blood): 9.1 ± 2.7 ng/g
- concentration at 24 h ([1]; female, CYP2A6-humanized (KI), mouse, adipose, FKI, female CYP2A6-humanized mice, single oral PCB 95 1.0 mg/kg, mean ± SD, read-out: Levels in adipose): 824 ± 458 ng/g
- concentration at 24 h ([1]; female, CYP2A6-humanized (KI), mouse, brain, FKI, female CYP2A6-humanized mice, single oral PCB 95 1.0 mg/kg, mean ± SD, read-out: Levels in brain): 19.7 ± 6.8 ng/g
- concentration at 24 h ([1]; female, CYP2A6-humanized (KI), mouse, liver, FKI, female CYP2A6-humanized mice, single oral PCB 95 1.0 mg/kg, mean ± SD, read-out: Levels in liver): 114 ± 44.1 ng/g
- concentration at 24 h ([1]; female, CYP2A6-humanized (KI), mouse, whole blood, FKI, female CYP2A6-humanized mice, single oral PCB 95 1.0 mg/kg, mean ± SD, read-out: Levels in blood): 12.9 ± 15.4 ng/g
- concentration at 24 h ([1]; female, Cyp2abfgs-null (KO), mouse, adipose, FKO, female Cyp2abfgs-null mice, single oral PCB 95 1.0 mg/kg, mean ± SD, read-out: Levels in adipose): 859 ± 317 ng/g
- concentration at 24 h ([1]; female, Cyp2abfgs-null (KO), mouse, brain, FKO, female Cyp2abfgs-null mice, single oral PCB 95 1.0 mg/kg, mean ± SD, read-out: Levels in brain): 20.6 ± 8.2 ng/g
- concentration at 24 h ([1]; female, Cyp2abfgs-null (KO), mouse, liver, FKO, female Cyp2abfgs-null mice, single oral PCB 95 1.0 mg/kg, mean ± SD, read-out: Levels in liver): 109 ± 29.7 ng/g
- concentration at 24 h ([1]; female, Cyp2abfgs-null (KO), mouse, whole blood, FKO, female Cyp2abfgs-null mice, single oral PCB 95 1.0 mg/kg, mean ± SD, read-out: Levels in blood): 8.6 ± 4.2 ng/g
- concentration at 24 h ([1]; male, C57BL/6 (wild-type), mouse, adipose, MWT, male wildtype mice, single oral PCB 95 1.0 mg/kg, mean ± SD, read-out: Levels in adipose): 1320 ± 297 ng/g
- concentration at 24 h ([1]; male, C57BL/6 (wild-type), mouse, brain, MWT, male wildtype mice, single oral PCB 95 1.0 mg/kg, mean ± SD, read-out: Levels in brain): 19.3 ± 4 ng/g
- concentration at 24 h ([1]; male, C57BL/6 (wild-type), mouse, liver, MWT, male wildtype mice, single oral PCB 95 1.0 mg/kg, mean ± SD, read-out: Levels in liver): 96.3 ± 31.7 ng/g
- concentration at 24 h ([1]; male, C57BL/6 (wild-type), mouse, whole blood, MWT, male wildtype mice, single oral PCB 95 1.0 mg/kg, mean ± SD, read-out: Levels in blood): 14.1 ± 2 ng/g
- concentration at 24 h ([1]; male, CYP2A6-humanized (KI), mouse, adipose, MKI, male CYP2A6-humanized mice, single oral PCB 95 1.0 mg/kg, mean ± SD, read-out: Levels in adipose): 734 ± 355 ng/g
- concentration at 24 h ([1]; male, CYP2A6-humanized (KI), mouse, brain, MKI, male CYP2A6-humanized mice, single oral PCB 95 1.0 mg/kg, mean ± SD, read-out: Levels in brain): 13.3 ± 5.7 ng/g
- concentration at 24 h ([1]; male, CYP2A6-humanized (KI), mouse, liver, MKI, male CYP2A6-humanized mice, single oral PCB 95 1.0 mg/kg, mean ± SD, read-out: Levels in liver): 183 ± 190 ng/g
- concentration at 24 h ([1]; male, CYP2A6-humanized (KI), mouse, whole blood, MKI, male CYP2A6-humanized mice, single oral PCB 95 1.0 mg/kg, mean ± SD, read-out: Levels in blood): 15.6 ± 18.3 ng/g
- concentration at 24 h ([1]; male, Cyp2abfgs-null (KO), mouse, adipose, MKO, male Cyp2abfgs-null mice, single oral PCB 95 1.0 mg/kg, mean ± SD, read-out: Levels in adipose): 692 ± 93 ng/g
- concentration at 24 h ([1]; male, Cyp2abfgs-null (KO), mouse, brain, MKO, male Cyp2abfgs-null mice, single oral PCB 95 1.0 mg/kg, mean ± SD, read-out: Levels in brain): 13.1 ± 6.1 ng/g
- concentration at 24 h ([1]; male, Cyp2abfgs-null (KO), mouse, liver, MKO, male Cyp2abfgs-null mice, single oral PCB 95 1.0 mg/kg, mean ± SD, read-out: Levels in liver): 146 ± 42.6 ng/g
- concentration at 24 h ([1]; male, Cyp2abfgs-null (KO), mouse, whole blood, MKO, male Cyp2abfgs-null mice, single oral PCB 95 1.0 mg/kg, mean ± SD, read-out: Levels in blood): 10.6 ± 7.4 ng/g
- PCB 95 levels in adipose tissue [2]: 9300 ng/g
- PCB 95 levels in blood [2]: 9 ng/g
- PCB 95 levels in the cerebellum [2]: 51 ng/g
- PCB 95 levels in the cortex [2]: 29 ng/g
- PCB 95 levels in the liver [2]: 120 ng/g
